From patent US20050180922A1, “Block co-polymer worm micelles and methods of use therefor” (priority 2004, published 2005)

Key:
[1] = Taxol loading into worm micelle core (HPLC); assay type: physicochemical; conditions: confirmed by HPLC
Method: In vitro assays. Drug delivery with liposomes entails loading either hydrophilic drugs or nucleic acids into the interior of the assembly (Wagner et al., Proc. Nat'l Acad. Sci. USA 89:7934 (1992)), or hydrophobic drugs into the lipid bilayer (Wenk et al., J. Pharm. Sci. 85:228 (1996)). The worm micelles in this study were loaded with the drug taxol, one of a variety of hydrophobic drugs available for killing tumor cells. Taxol binds to, and toxically stabilizes, microtubules at 1-10 nM (Gloushankova et al., Proc. Nat'l. Acad. Sci. USA 91:8597 (1994)).

microtubules = conditions: cited from earlier work

## CC(=O)O[C@H]1C(=O)[C@@]2(C)[C@H]([C@H](OC(=O)c3ccccc3)[C@]3(O)C[C@H](OC(=O)[C@H](O)[C@@H](NC(=O)c4ccccc4)c4ccccc4)C(C)=C1C3(C)C)[C@]1(OC(C)=O)CO[C@@H]1C[C@@H]2O [taxol, paclitaxel]
[1]
  taxol partition into hydrophobic core: one molecule of taxol partitions into the hydrophobic core per ten copolymers
microtubules
  concentration that binds and toxically stabilizes microtubules: 1 to 10 nM
